Data from doi:10.1101/659573v1 (bioRxiv, 2019).

Tested on: mucin
Assay: Bulk diffusion of FITC-peptides and fluorescein salt in mucin
Assay type: in vitro ADME
Conditions: DPBS/Dmucin

O=C([O-])c1ccccc1-c1c2ccc(=O)cc-2oc2cc([O-])ccc12.[Na+].[Na+] [Fluorescein salt, fluorescein sodium salt]
fold decreased diffusion in mucin compared to saline: 3 fold
